Experiments:
Assay in all cases: Bliss excess, mean over the matrix (fraction); higher = more synergy
[1] = system: SNU-16 (Gastric Carcinoma)
Procedure, shortened: (§1)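 Cell lines in DMEM/F12 or RPMI with 10% FBS were plated in 1536-well plates, held 24 hours at 37°C, 5% CO2, then given two-drug dose matrices for 72 hours (DMSO typically 0.2%). Viability was read by CellTiter-Glo 2.0 luminescence and scaled as inhibition from 0 (vehicle wells) to 1 (blank wells). Combination Emax is the second-highest inhibition in the matrix; Bliss excess is observed combination effect minus expected EA + EB − EA·EB, EA and EB being single-agent effects.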

A673 (Ewing's Sarcoma) = system: A673 (Ewing's Sarcoma)
Procedure, shortened: as §1

[2] = system: ESS-1 (Other Solid Carcinomas)
Procedure, shortened: as §1

GAMG (Glioblastoma) = system: GAMG (Glioblastoma)
Procedure, shortened: as §1

[3] = system: WSU-NHL (B-Cell Non-Hodgkin's Lymphoma)
Procedure, shortened: as §1

BPH-1 (Non-Cancerous) = system: BPH-1 (Non-Cancerous)
Procedure, shortened: as §1

[4] = system: LNZTA3WT4 (Low Grade Glioma)
Procedure, shortened: as §1

LOXIMVI (Melanoma) = system: LOXIMVI (Melanoma)
Procedure, shortened: as §1

NCI-H2722 (Mesothelioma) = system: NCI-H2722 (Mesothelioma)
Procedure, shortened: as §1

[5] = system: OE21 (Esophageal Squamous Cell Carcinoma)
Procedure, shortened: as §1

[6] = system: NCI-H1568 (Lung Adenocarcinoma)
Procedure, shortened: as §1

[7] = system: BFTC-909 (Kidney Carcinoma)
Procedure, shortened: as §1

[8] = system: KMRC-20 (Kidney Carcinoma)
Procedure, shortened: as §1

[9] = system: Hs-746T (Gastric Carcinoma)
Procedure, shortened: as §1

[10] = system: LCLC-97TM1 (Non-Small Cell Lung Carcinoma)
Procedure, shortened: as §1

[11] = system: HuCCT1 (Biliary Tract Carcinoma)
Procedure, shortened: as §1

[12] = system: NCI-H524 (Small Cell Lung Carcinoma)
Procedure, shortened: as §1

KS-1 (Glioblastoma) = system: KS-1 (Glioblastoma)
Procedure, shortened: as §1

[13] = system: L-428 (Hodgkin's Lymphoma)
Procedure, shortened: as §1

[14] = system: HeLa (Cervical Carcinoma)
Procedure, shortened: as §1

Row | Compound | Bliss excess [1] | Bliss excess (A673 (Ewing's Sarcoma)) | Bliss excess [2] | Bliss excess (GAMG (Glioblastoma)) | Bliss excess [3] | Bliss excess (BPH-1 (Non-Cancerous)) | Bliss excess [4] | Bliss excess (LOXIMVI (Melanoma)) | Bliss excess (NCI-H2722 (Mesothelioma)) | Bliss excess [5] | Bliss excess [6] | Bliss excess [7] | Bliss excess [8] | Bliss excess [9] | Bliss excess [10] | Bliss excess [11] | Bliss excess [12] | Bliss excess (KS-1 (Glioblastoma)) | Bliss excess [13] | Bliss excess [14]
1 | CN(CCO)CC[C@H](CSc1ccccc1)Nc1ccc(S(=O)(=O)NC(=O)c2ccc(N3CCC([C@@H](O)c4ccccc4-c4ccc(Cl)cc4)CC3)cc2)cc1S(=O)(=O)C(F)(F)F [AZD4320] + Cc1cc2ncnn2cc1Nc1ncc2c(n1)n(C1CCOCC1)c(=O)n2C [AZD7648] (first compound max 1 µM, 7x7, partner max 10 µM) | 0.0237 | 0.0069 | -0.0373 | -0.0633 | -0.0087 | -0.0325 | -0.0358 | 0.023 | -0.0695 | -0.0187 | -0.0325 | -0.0094 | -0.0393 | -0.0371 | -0.0214 | -0.0407 | -0.044 | 0.0033 | -0.0021 | -0.0345
2 | CN(CCO)CC[C@H](CSc1ccccc1)Nc1ccc(S(=O)(=O)NC(=O)c2ccc(N3CCC([C@@H](O)c4ccccc4-c4ccc(Cl)cc4)CC3)cc2)cc1S(=O)(=O)C(F)(F)F [AZD4320] + CCN(CCO)CCCOc1ccc2c(Nc3cc(CC(=O)Nc4cccc(F)c4)[nH]n3)ncnc2c1 [AZD2811] (first compound max 1 µM, 7x7, partner max 1 µM) | 0.0638 | 0.0819 | 0.21 | 0.119 | -0.0295 | -0.0079 | -0.0224 | 0.0896 | -0.024 | -0.0212 | -0.0102 | 0.0605 | 0.0024 | -0.0095 | 0.0642 | -0.0283 | -0.0163 | 0.0261 | 0.0083 | -0.0242
3 | COc1cc2ncnc(Nc3ccc(F)c(Cl)c3)c2cc1OCCCN1CCOCC1 [Gefitinib] + CC(C)n1c(=O)n(C)c2cnc3cc(F)c(-c4ccc(OCCCN5CCCCC5)nc4)cc3c21 [AZD1390] (first compound max 10 µM, 7x7, partner max 0.3 µM) | -0.0183 | -0.047 | -0.0518 | -0.0443 | -0.0499 | -0.0347 | -0.0393 | -0.0384 | -0.0662 | -0.0696 | -0.0412 | -0.0614 | -0.056 | -0.0759 | -0.0389 | -0.0347 | -0.0431 | -0.0599 | -0.0645 | -0.0578
4 | Cc1cc2ncnn2cc1Nc1ncc2c(n1)n(C1CCOCC1)c(=O)n2C [AZD7648] + O=C(c1cc(Cc2n[nH]c(=O)c3ccccc23)ccc1F)N1CCN(C(=O)C2CC2)CC1 [Olaparib] (first compound max 10 µM, 7x7, partner max 10 µM) | -0.0301 | -0.015 | -0.0721 | -0.0608 | -0.057 | 0.0337 | -0.0341 | -0.0577 | -0.0445 | -0.088 | -0.0307 | -0.037 | -0.0594 | -0.0732 | -0.0218 | -0.028 | -0.0698 | -0.0355 | -0.019 | -0.0016
5 | Cc1cc2ncnn2cc1Nc1ncc2c(n1)n(C1CCOCC1)c(=O)n2C [AZD7648] + C=CCn1c(=O)c2cnc(Nc3ccc(N4CCN(C)CC4)cc3)nc2n1-c1cccc(C(C)(C)O)n1 [AZD1775] (first compound max 10 µM, partner max 1 µM) | -0.0345 | -0.0306 | 0.0525 | -0.005 | 0.0072 | 0.0321 | -0.0049 | -0.0123 | 0.0033 | -0.0013 | -0.0763 | 0.0097 | -0.0164 | -0.0827 | 0.0234 | 0.0065 | -0.0254 | 0.0297 | 0.0144 | -0.0542
6 | Cc1cc2ncnn2cc1Nc1ncc2c(n1)n(C1CCOCC1)c(=O)n2C [AZD7648] + C[C@@H]1COCCN1C2=NC(=NC(=C2)C3(CC3)[S@](=N)(=O)C)C4=C5C=CNC5=NC=C4 [AZD6738] (first compound max 10 µM, 7x7, partner max 10 µM) | -0.009 | -0.0295 | -0.0161 | 0.0064 | -0.0181 | -0.0251 | -0.0165 | -0.0019 | -0.0163 | -0.0793 | 0.0383 | -0.0204 | -0.0207 | -0.0119 | 0.0376 | -0.0087 | 0.035 | -0.0011 | -0.0223 | 0.0258
7 | C[C@@H](c1ccc2nccn2c1)n1nnc2ncc(-c3cnn(C)c3)nc21 [Savolitinib] + Cc1c2c(nn1C)CSCc1cc(n(C)n1)CSc1cc(c3ccccc3c1)OCCCc1c(C(=O)O)n(C)c3c-2c(Cl)ccc13 [AZD5991] (first compound max 1 µM, 7x7, partner max 1 µM) | -0.047 | 0.0471 | -0.0432 | -0.0209 | -0.0467 | -0.0457 | -0.0247 | -0.0096 | -0.0088 | -0.0479 | -0.05 | -0.0074 | -0.0733 | -0.0489 | -0.0311 | -0.0556 | -0.0115 | -0.0509 | -0.0296 | -0.0696
8 | COc1cc2c(cc1OCCCCCOc1cc3c(cc1OC)C(=O)N1C=C(C)C[C@H]1C=N3)N=C[C@@H]1CC(C)=CN1C2=O [SG3199] + O=C(c1cc(Cc2n[nH]c(=O)c3ccccc23)ccc1F)N1CCN(C(=O)C2CC2)CC1 [Olaparib] (first compound max 0.001 µM, 7x7, partner max 10 µM) | -0.0598 | -0.0556 | -0.0118 | -0.0494 | -0.0156 | 0.0391 | -0.0444 | -0.0599 | -0.0459 | -0.0537 | -0.077 | -0.0308 | -0.0192 | -0.0292 | -0.0079 | -0.0309 | -0.0181 | -0.0482 | -0.0207 | -0.0301
9 | C[C@@H](c1ccc2nccn2c1)n1nnc2ncc(-c3cnn(C)c3)nc21 [Savolitinib] + CC1(C)CCC(CN2CCN(c3ccc(C(=O)NS(=O)(=O)c4ccc(NCC5CCOCC5)c([N+](=O)[O-])c4)c(Oc4cnc5[nH]ccc5c4)c3)CC2)=C(c2ccc(Cl)cc2)C1 [Venetoclax] (first compound max 1 µM, 7x7, partner max 1 µM) | -0.0188 | -0.0673 | -0.0241 | -0.0257 | -0.0193 | -0.0928 | -0.0907 | -0.0355 | -0.0617 | -0.0443 | -0.0575 | -0.0401 | -0.0524 | -0.0105 | -0.0427 | -0.0525 | -0.0066 | -0.0476 | -0.0284 | -0.0374
10 | Cc1cc2ncnn2cc1Nc1ncc2c(n1)n(C1CCOCC1)c(=O)n2C [AZD7648] + CN(C)CCCOc1ccc(-c2ccc3ncc4c(c3c2)n(C2CCOCC2)c(=O)n4C)cn1 [AZD0156] (first compound max 10 µM, 7x7, partner max 1 µM) | 0.0214 | -0.0142 | 0.0364 | -0.058 | -0.0531 | 0.0049 | 0.0113 | -0.0141 | -0.0023 | -0.0629 | -0.0213 | -0.0032 | -0.0232 | -0.024 | -0.0042 | 0.0032 | 0.0254 | -0.068 | 0.069 | 0.0376
11 | Cc1nc(Nc2ncc(C(=O)Nc3c(C)cccc3Cl)s2)cc(N2CCN(CCO)CC2)n1 [Dasatinib] + CC(=O)Nc1cccc(-n2c(=O)n(C3CC3)c(=O)c3c(Nc4ccc(I)cc4F)n(C)c(=O)c(C)c32)c1 [Trametinib] (first compound max 2 µM, 7x7, partner max 1 µM) | -0.0261 | -0.075 | -0.0417 | -0.018 | 0.0024 | -0.0801 | -0.0794 | 0.0175 | -0.0321 | -0.0561 | 0.118 | -0.0139 | -0.0518 | -0.0943 | 0.0455 | -0.0272 | -0.0362 | -0.0429 | -0.0494 | -0.0672

— the supplement of paper PMC11061612
